Results from ChEMBL document CHEMBL1201862, “PubChem BioAssay data set” (2004).
The source made the active and inactive calls.

How the values were obtained:
[1] = target: T1, High affinity choline transporter 1 (Homo sapiens, UniProt Q9GZV3); test: human choline transporter blockers, potency – cell-based, 5-point CRC, membrane potential dye, dose response (AID 504840); type: functional
T1 sequence (Q9GZV3 whole entry): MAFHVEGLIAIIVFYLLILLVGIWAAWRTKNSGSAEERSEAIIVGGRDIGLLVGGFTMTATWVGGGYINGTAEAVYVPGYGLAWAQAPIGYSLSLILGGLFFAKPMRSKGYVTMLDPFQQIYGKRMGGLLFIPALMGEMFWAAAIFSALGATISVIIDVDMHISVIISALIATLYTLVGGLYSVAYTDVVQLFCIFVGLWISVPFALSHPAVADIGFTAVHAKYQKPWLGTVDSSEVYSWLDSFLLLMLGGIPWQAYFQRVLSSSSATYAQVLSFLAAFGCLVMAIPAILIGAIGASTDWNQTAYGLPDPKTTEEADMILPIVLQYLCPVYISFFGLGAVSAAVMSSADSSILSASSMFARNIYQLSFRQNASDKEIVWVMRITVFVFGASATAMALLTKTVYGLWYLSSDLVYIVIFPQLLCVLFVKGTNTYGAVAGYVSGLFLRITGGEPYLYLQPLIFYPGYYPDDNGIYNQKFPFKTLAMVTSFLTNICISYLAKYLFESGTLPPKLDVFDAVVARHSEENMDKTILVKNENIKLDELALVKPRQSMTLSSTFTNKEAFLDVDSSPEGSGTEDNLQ

[2] = target: T2, Short transient receptor potential channel 4 (Mus musculus, UniProt Q9QUQ5); test: calcium entry via TRPC4 opening agents – cell-based, HEK293 TRPC4/mu-opioid, Fluo-4 calcium, dose response (AID 434937); type: functional
T2 sequence (Q9QUQ5 whole entry): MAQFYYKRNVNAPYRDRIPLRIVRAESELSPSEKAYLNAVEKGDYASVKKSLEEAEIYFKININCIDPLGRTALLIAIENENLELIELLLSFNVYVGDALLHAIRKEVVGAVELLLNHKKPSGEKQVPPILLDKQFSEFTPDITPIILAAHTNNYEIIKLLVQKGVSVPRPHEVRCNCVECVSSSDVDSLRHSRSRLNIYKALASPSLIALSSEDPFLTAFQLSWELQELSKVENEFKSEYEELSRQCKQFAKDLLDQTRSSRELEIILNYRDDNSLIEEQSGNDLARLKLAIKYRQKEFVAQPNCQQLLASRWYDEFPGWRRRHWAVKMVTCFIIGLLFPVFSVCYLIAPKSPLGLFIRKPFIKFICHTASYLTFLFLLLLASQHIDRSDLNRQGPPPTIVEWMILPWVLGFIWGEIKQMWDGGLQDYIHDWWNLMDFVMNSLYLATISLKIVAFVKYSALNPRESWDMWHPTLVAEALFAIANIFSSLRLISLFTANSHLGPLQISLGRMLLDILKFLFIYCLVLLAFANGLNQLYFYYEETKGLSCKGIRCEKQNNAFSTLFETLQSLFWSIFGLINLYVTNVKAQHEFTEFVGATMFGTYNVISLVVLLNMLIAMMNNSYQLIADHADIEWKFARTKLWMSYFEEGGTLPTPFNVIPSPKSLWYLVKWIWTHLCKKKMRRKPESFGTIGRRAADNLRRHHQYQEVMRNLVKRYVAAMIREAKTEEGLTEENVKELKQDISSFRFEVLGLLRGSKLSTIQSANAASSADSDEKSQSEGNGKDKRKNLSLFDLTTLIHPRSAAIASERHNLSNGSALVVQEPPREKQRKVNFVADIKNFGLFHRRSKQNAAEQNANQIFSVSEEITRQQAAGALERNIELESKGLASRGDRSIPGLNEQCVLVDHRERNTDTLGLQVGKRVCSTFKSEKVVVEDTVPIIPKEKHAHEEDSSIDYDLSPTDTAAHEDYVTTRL

[3] = blockers of HIV-1 ZM109 envelope-driven cell-cell fusion – HeLa effector, CEM target cells, luciferase, cherry-pick, dose response (AID 652058); type: functional, cell-based;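 note: luciferase signal from HIV-1 Env mediated cell-cell fusion of effector and target cells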
[4] = HIV-1 AD8 envelope cell-cell fusion blockers – cherry-pick, dose response (AID 652062); type: functional, cell-based;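 note: luciferase signal from cell-cell fusion driven by HIV-1 clade B AD8 Env; potency is for inhibitors of fusion seen as a drop in luminescence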
[5] = blockers of HIV-1 envelope-mediated cell-cell fusion – cherry-pick, dose response (AID 652057); type: functional, cell-based
[6] = NIH3T3 cell viability loss – ATP luminescence, mouse fibroblasts, counter-screen, dose response (AID 2010); type: functional, cell-based;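 note: cells exposed to compound for about 90 hours before reading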
[7] = Trypanosoma cruzi growth suppression in host cells – NIH3T3 host cells, beta-gal luminescence, confirmation (AID 2044); type: functional, cell-based;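 note: intracellular parasites grown in NIH/3T3 mouse fibroblasts as host cells; luminescent beta-galactosidase reporter signal from transgenic T. cruzi replicating inside host cells; inhibitors lower the luminescence signal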
INS1 = test: INS-1E survival protection against cytokine death – cell-based, luminescence, retest, dose response (AID 449756); type: functional; settings: Rattus norvegicus;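 note: cell death triggered by IL-1 beta plus TNF-alpha plus IFN-gamma mixture; protective hits raise ATP signal compared with cytokine alone wells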
[8] = test system: Streptococcus sp. 'group A'; test: Streptococcus pyogenes SK(-)GAS viability under kanamycin – luminescence, BacTiterGlo, confirmation, counter-screen for streptokinase expression inhibitor project, dose response (AID 1900); type: functional, organism-based
Streptococcus = test: GAS UMAA2166 growth inhibition – luminescence, BacTiterGlo, counter-screen for streptokinase expression inhibitor project, dose response (AID 1915); type: functional, organism-based;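 note: potency for reduction of bacterial viability or growth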
Streptokinase A = target: T3, Streptokinase A (Streptococcus pyogenes serotype M1, UniProt P10520); test: viability-normalized secreted streptokinase activity reduction – plasminogen activation absorbance, OD405, dose response (AID 1914); type: functional, Streptococcus pyogenes M1 GAS;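 note: secreted streptokinase activity via plasminogen activation per viability signal from cell pellet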
T3 sequence (P10520 whole entry): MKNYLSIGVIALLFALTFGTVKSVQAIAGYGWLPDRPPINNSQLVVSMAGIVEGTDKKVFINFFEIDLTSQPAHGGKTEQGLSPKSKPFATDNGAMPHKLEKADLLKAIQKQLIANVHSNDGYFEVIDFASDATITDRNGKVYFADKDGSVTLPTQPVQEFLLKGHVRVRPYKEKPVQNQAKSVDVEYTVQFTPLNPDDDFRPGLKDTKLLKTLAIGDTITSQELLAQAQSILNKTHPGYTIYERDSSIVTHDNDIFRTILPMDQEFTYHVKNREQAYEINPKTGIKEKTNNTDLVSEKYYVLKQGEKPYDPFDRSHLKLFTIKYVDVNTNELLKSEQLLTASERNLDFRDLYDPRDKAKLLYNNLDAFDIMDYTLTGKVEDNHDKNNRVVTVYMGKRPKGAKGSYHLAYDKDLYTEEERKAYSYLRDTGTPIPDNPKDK

[9] = target: T4, Heat shock factor protein 1 (Mus musculus, UniProt P38532); test: enhancement of HSF1-driven luciferase signal – cell-based, NIH3T3, luminescence, dose retest, confirmation (AID 435004); type: functional;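 note: stress induced by proteasome inhibitor MG132 added 30 min after compound; luciferase reporter driven by HSF1 response element in NIH3T3 cells; actives raise luminescence as potentiators of the MG132 stress response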
T4 sequence (P38532 whole entry): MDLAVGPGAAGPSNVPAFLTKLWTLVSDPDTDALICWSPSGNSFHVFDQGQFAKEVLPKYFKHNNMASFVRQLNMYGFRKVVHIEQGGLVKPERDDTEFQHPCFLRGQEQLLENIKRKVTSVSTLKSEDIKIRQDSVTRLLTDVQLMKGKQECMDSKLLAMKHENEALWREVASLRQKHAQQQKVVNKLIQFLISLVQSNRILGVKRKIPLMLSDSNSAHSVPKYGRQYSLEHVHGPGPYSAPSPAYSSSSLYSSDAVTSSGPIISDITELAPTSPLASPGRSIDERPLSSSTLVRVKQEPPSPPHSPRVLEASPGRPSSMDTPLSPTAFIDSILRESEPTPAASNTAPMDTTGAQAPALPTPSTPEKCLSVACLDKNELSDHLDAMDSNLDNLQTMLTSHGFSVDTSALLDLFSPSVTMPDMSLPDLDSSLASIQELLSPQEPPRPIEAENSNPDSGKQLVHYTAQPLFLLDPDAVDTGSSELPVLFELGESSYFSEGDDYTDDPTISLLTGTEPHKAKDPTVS

Fatty acid synthase = Fatty acid synthase (Homo sapiens, UniProt P49327); test: inhibition of human FAS-TE enzyme activity – biochemical, kinetic fluorescence intensity, dose response (AID 624326); type: functional;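 note: rate of fluorescence rise from hydrolysis of a fluorogenic O-methyl fluorescein ester substrate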
[10] = target: FAD-linked sulfhydryl oxidase ALR (Homo sapiens, UniProt P55789); test: ALR-catalysed DTT oxidation blockers – biochemical, H2O2 detection, luminescence, cherry-pick, dose response (AID 493248)
[11] = Luminescence Cell-Based Dose Response HTS to Identify Activators of Luciferase Translation or Activity in H4 […] Cells. [Related pubchem assays: 1829 (Project Summary), 1814 (Primary HTS)]; type: functional
H4 = test: Luminescence Cell-Based Dose Response HTS to Identify Activators of 5'UTR Stem-Loop Driven Prion Protein mRNA Translation in H4 Neuroglioblastoma Cells. [Related pubchem assays: 1829 (Project Summary), 1814 (Primary HTS)]; type: functional; settings: Homo sapiens
[12] = Luminescence Cell-Based Dose Confirmation HTS to Identify Activators of 5'UTR Stem-Loop Driven Alpha-Synuclein mRNA Translation in H4 Neuroglioblastoma Cells. [Related pubchem assays: 1829 (Project Summary), 1814 (Primary HTS)]; type: functional
[13] = target: T5, Corticotropin-releasing factor receptor 2/Corticotropin-releasing factor-binding protein (Homo sapiens, UniProt P24387+Q13324); test: activators of CRF receptor 2 with binding protein – uHTS hits, confirmation (AID 602473); type: functional; settings: read-out: EC50_Mean
T5 sequence (Q13324 whole entry): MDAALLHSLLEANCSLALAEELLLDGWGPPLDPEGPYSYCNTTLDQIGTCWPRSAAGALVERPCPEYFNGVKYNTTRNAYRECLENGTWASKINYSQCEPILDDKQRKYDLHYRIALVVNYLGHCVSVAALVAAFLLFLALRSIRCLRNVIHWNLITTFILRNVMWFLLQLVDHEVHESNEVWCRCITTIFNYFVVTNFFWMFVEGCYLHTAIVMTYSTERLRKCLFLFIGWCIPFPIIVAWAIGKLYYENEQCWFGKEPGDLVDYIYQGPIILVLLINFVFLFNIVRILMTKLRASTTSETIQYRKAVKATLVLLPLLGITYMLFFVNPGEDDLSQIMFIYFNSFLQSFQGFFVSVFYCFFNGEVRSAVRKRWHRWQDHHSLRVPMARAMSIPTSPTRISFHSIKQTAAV
T5 sequence (P24387 whole entry): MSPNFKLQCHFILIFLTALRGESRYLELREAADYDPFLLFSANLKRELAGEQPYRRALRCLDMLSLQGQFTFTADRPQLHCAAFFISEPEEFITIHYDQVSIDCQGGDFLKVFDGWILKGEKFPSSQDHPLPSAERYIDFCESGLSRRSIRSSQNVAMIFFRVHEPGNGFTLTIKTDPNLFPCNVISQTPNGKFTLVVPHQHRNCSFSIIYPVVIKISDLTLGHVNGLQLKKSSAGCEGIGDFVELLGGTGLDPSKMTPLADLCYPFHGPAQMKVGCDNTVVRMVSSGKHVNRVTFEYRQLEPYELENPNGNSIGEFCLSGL

Chain of Fatty acid synthase (P49327 whole entry): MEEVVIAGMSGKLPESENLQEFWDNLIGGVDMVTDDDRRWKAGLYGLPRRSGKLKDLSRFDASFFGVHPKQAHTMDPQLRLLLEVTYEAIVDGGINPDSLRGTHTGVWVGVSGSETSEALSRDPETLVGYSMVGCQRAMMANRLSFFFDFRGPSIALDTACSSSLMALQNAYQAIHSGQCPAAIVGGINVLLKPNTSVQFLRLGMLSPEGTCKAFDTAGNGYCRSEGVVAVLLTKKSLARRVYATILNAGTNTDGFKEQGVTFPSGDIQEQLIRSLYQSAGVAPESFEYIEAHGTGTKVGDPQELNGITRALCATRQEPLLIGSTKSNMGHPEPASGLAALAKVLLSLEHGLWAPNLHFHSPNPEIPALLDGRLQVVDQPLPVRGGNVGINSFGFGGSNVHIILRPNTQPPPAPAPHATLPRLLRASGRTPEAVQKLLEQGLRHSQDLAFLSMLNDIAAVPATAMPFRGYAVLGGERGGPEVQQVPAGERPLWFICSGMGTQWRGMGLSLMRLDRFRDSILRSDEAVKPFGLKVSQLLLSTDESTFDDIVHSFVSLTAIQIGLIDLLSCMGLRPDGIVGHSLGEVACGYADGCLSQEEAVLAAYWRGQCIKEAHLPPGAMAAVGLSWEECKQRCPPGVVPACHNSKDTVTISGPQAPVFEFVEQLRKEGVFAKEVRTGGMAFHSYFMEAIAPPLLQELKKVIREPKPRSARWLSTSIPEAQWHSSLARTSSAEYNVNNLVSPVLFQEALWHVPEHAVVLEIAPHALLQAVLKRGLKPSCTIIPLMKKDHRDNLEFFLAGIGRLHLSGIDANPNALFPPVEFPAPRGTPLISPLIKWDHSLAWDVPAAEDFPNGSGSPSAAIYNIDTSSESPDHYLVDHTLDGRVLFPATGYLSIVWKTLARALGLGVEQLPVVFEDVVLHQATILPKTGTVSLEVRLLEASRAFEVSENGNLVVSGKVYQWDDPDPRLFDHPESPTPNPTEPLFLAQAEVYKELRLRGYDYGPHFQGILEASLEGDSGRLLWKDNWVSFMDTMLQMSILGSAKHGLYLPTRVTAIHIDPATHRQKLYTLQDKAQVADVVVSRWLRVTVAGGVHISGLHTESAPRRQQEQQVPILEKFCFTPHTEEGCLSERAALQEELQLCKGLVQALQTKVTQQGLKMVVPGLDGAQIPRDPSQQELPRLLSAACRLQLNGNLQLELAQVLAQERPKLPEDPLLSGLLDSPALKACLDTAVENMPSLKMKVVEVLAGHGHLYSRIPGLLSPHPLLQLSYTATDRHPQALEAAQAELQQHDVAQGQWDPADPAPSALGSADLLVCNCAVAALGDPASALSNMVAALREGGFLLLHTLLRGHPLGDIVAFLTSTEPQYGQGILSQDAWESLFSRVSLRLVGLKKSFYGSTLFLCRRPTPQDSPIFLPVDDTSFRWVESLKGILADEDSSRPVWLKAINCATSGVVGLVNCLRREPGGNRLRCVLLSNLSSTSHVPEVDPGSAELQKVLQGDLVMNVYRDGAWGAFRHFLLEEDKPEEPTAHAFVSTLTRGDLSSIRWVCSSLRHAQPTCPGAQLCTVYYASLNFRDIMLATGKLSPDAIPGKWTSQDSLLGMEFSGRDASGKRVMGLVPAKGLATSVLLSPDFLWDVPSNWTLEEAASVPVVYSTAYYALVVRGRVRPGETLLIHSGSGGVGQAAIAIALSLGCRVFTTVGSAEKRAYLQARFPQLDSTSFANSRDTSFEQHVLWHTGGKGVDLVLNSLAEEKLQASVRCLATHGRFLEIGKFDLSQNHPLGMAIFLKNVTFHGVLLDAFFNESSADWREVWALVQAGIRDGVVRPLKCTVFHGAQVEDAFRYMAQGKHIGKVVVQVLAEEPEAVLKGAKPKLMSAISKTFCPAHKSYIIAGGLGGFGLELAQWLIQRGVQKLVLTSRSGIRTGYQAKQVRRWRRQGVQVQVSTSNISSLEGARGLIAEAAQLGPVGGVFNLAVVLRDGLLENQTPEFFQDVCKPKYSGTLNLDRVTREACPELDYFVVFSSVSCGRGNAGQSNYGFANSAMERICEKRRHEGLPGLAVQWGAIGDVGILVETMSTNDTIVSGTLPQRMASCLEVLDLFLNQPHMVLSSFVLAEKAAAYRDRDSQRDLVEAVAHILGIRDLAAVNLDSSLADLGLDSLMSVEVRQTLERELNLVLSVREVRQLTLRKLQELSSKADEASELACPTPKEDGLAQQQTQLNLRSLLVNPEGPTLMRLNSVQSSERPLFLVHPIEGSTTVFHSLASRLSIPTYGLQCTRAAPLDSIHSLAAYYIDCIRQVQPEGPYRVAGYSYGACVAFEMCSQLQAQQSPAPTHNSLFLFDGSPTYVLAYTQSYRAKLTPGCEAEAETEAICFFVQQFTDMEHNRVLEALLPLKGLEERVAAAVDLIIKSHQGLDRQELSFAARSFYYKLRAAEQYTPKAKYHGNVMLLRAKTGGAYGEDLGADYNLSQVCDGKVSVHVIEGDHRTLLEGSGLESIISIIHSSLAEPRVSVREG
Chain of FAD-linked sulfhydryl oxidase ALR (P55789 whole entry): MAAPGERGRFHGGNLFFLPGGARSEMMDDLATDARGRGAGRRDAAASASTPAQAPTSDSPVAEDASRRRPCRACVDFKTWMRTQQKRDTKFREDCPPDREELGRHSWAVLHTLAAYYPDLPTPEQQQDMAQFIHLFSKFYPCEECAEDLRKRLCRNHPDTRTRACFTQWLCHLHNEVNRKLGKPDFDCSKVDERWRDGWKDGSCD

SMILES: COc1ccccc1Nc1ncnc2ccc(C)cc12
- IC50 [1]: 13.8 µM (active)

SMILES: Cc1ccc2nc3c(O)n(CCc4c[nH]cn4)cnc-3c2c1
- EC50 [2]: 1.88 µM (active)

SMILES: Cc1ccc(S(=O)(=O)N(C)C[C@@H]2Oc3cc(C4=CCCC4)ccc3S(=O)(=O)N([C@@H](C)CO)C[C@H]2C)cc1
- AC50 [3]: 67.6 µM (active)
- AC50 [4]: 41.6 µM (active)
- AC50 [5]: 4.07 µM (active)

SMILES: Cc1ccc(C(=O)Nc2ccc(S(=O)(=O)NC3=NCCCCC3)cc2)c(C)c1
- IC50 [1]: 10.8 µM (active)

SMILES: CCOc1ncccc1C(=O)NCC(c1ccccc1)N(C)C (stereo unspecified)
- EC50 [2]: 1.19 µM (active)

SMILES: Cc1noc(C)c1S(=O)(=O)N1CCC(C(=O)NCCCN2CC(C)CC(C)C2)CC1 (stereo unspecified)
- EC50 [2]: 0.473 µM (active)

SMILES: c1ccc2c(CN3CCCCCCC3)c[nH]c2c1
- EC50 [6]: > 30 µM (not active)
- EC50 [7]: 1.15 µM (active)
- IC50 [1]: 12.6 µM (active)
- AC50 (INS1): 4.22 µM (active)

SMILES: O=C(CSc1nc2ccccc2[nH]1)c1ccc2c(c1)OCO2
- IC50 [1]: 10 µM (active)

SMILES: CC(C)N(C)CCOC(=O)C1COc2ccccc2O1 (stereo unspecified)
- IC50 [1]: 13.8 µM (active)

SMILES: O=C(NC(=S)NNC(=O)c1ccccc1[N+](=O)[O-])c1ccc(Br)cc1
- EC50 [8]: 4.24 µM (active)
- EC50 (Streptococcus): 11.6 µM (active)
- EC50 [2]: 11.9 µM (active)
- EC50 (Streptokinase A): > 150 µM (not active)

SMILES: C=C(C)CN(CC)c1nc(N)c2c(N)nc3c(c2c1C#N)CC(=O)N3C12CC3CC(CC(C3)C1)C2
- AC50 [3]: 7.36 µM (active)
- EC50 [6]: > 60 µM (not active)
- EC50 [7]: 1.69 µM (active)
- EC50 [9]: > 260 µM (inactive)

SMILES: CCN(CC(=O)Nc1cccc(OC)c1)c1ncnc2sc(C)c(C)c12
- IC50 [1]: 7.24 µM (active)

SMILES: CC(C)NC(=O)Nc1ccc2c(c1)C(=O)N([C@@H](C)CO)C[C@@H](C)[C@@H](CN(C)C(=O)CCC(F)(F)F)OCCCC[C@@H](C)O2
- AC50 [3]: 0.518 µM (active)
- AC50 [4]: 2.7 µM (active)
- AC50 [5]: 0.969 µM (active)

SMILES: O=C(c1cc2c(nc1O)CCCC2)N1CCc2c([nH]c3ccccc23)C1c1ccccc1F (stereo unspecified)
- IC50 [1]: 19.1 µM (active)

SMILES: CCCNC(=O)N1[C@H](C#N)[C@H](c2ccc(-c3ccc(C(=O)N(C)C)cc3)cc2)[C@@H]1CO
- AC50 [3]: 32.8 µM (active)
- AC50 [4]: 0.784 µM (active)

SMILES: CCCc1cc(C(=O)Nc2cccc([N+](=O)[O-])c2)cs1
- IC50 (Fatty acid synthase): 8.66 µM (active)

SMILES: CCn1c(N2CCN(CC(=O)Nc3cccc(C)c3C)CC2)nc2ccccc21
- EC50 [2]: 2.11 µM (active)

SMILES: CCCc1cc(Nc2c(C)n(C)n(-c3ccccc3)c2=O)n2c(nc3ccccc32)c1C#N
- IC50 [1]: 13.8 µM (active)

SMILES: Sc1n[nH]c(-c2cc(Cl)cc(Cl)c2)n1
- AC50 [10]: 1.72 µM (active)
- IC50 [1]: 10.5 µM (active)

SMILES: CN(C)CCN(C(=O)c1cccc2ccccc12)c1nc2cc3c(cc2s1)OCO3
- EC50 [2]: 5.96 µM (active)

SMILES: Cc1ccc(Nc2nc(CSc3nnc(-c4ccc(F)cc4)n3C)cs2)cc1
- EC50 [11]: 16.9 µM (active)
- EC50 (H4): 15 µM (active)
- EC50 [12]: 17.2 µM (active)
- IC50 [1]: 15.8 µM (active)

SMILES: Cn1c2ccccc2c(=O)c2c(=O)n(C3CCCCC3)c(-c3ccco3)nc21
- EC50 [13]: 8.22 µM (active)
- EC50 [2]: 4.73 µM (active)
